Test results reported in PubChem BioAssay AID248 (DTP/NCI, 2004).
Values joined by “and” are separate entries in the source; they are usually repeats but may differ in a detail not shown here. Identical values can stand only once. Inconclusive results and toxic doses are left out. Rule as the data show it: active = T/C of 150% or more; inactive = T/C below 125%.

Tested on: L1210 leukemia ip in BDF1 mice, survival T/C
Assay: NCI In Vivo Anticancer Drug Screen. Data for tumor model L1210 Leukemia (intraperitoneal) in B6D2F1 (BDF1) mice
Details: endpoint: mean survival time, higher = longer survival
Procedure, shortened: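 Mice bearing the transplanted tumor received compound or vehicle. Survival of the treated group was divided by that of the vehicle-treated control group to give the ratio.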

[1] = dose: 100.0 mg/kg/injection, schedule: Q04DX002 (ip), vehicle: Klucel (hydroxypropylcellulose) (HPC)
[2] = dose: 200.0 mg/kg/injection, schedule: Q04DX002 (ip), vehicle: Klucel (hydroxypropylcellulose) (HPC)
[3] = dose: 400.0 mg/kg/injection, schedule: Q04DX002 (ip), vehicle: Klucel (hydroxypropylcellulose) (HPC)
[4] = dose: 100.0 mg/kg/injection, schedule: Q04DX003 (ip), vehicle: saline with Tween-80
[5] = dose: 200.0 mg/kg/injection, schedule: Q04DX003 (ip), vehicle: saline with Tween-80
[6] = dose: 400.0 mg/kg/injection, schedule: Q04DX003 (ip), vehicle: saline with Tween-80
[7] = dose: 100.0 mg/kg/injection, schedule: Q01DX009 (ip), vehicle: Klucel (hydroxypropylcellulose) (HPC)
[8] = dose: 200.0 mg/kg/injection, schedule: Q01DX009 (ip), vehicle: Klucel (hydroxypropylcellulose) (HPC)
[9] = dose: 400.0 mg/kg/injection, schedule: Q01DX009 (ip), vehicle: Klucel (hydroxypropylcellulose) (HPC)
[10] = dose: 100.0 mg/kg/injection, schedule: Q04DX003 (ip), vehicle: Klucel (hydroxypropylcellulose) (HPC)
[11] = dose: 200.0 mg/kg/injection, schedule: Q04DX003 (ip), vehicle: Klucel (hydroxypropylcellulose) (HPC)
[12] = dose: 100.0 mg/kg/injection, schedule: Q04DX003 (ip), vehicle: saline
[13] = dose: 200.0 mg/kg/injection, schedule: Q04DX003 (ip), vehicle: saline
[14] = dose: 400.0 mg/kg/injection, schedule: Q04DX003 (ip), vehicle: saline
[15] = dose: 100.0 mg/kg/injection, schedule: Q01DX009 (ip), vehicle: saline with Tween-80
[16] = dose: 200.0 mg/kg/injection, schedule: Q01DX009 (ip), vehicle: saline with Tween-80
[17] = dose: 400.0 mg/kg/injection, schedule: Q01DX009 (ip), vehicle: saline with Tween-80
[18] = dose: 100.0 mg/kg/injection, schedule: Q01DX001 (ip), vehicle: other
[19] = dose: 200.0 mg/kg/injection, schedule: Q01DX001 (ip), vehicle: other
[20] = dose: 400.0 mg/kg/injection, schedule: Q01DX001 (ip), vehicle: other
[21] = dose: 100.0 mg/kg/injection, schedule: Q01DX001 (ip), vehicle: saline

Measured: T/C

Cc1cc(N(CCCl)CCCl)ccc1C=Nc1ccc2c(c1)ncn2C
inactive: [1] 98 % of control | [2] 98 % of control | [3] 98 % of control

c1ccc(N/N=C(\Sc2ccccc2)c2ccccc2)cc1
inactive: [4] 113 % of control | [5] 102 % of control | [6] 94 % of control

O=C(CCOCc1ccccc1)N1Cc2cc3ccccc3nc2C1
inactive: dose: 10.0 mg/kg/injection, schedule: Q04DX003 (ip), vehicle: alcohol 96 % of control | dose: 20.0 mg/kg/injection, schedule: Q04DX003 (ip), vehicle: alcohol 97 % of control | dose: 40.0 mg/kg/injection, schedule: Q04DX003 (ip), vehicle: alcohol 92 % of control | dose: 80.0 mg/kg/injection, schedule: Q04DX003 (ip), vehicle: alcohol 103 % of control | dose: 160.0 mg/kg/injection, schedule: Q04DX003 (ip), vehicle: alcohol 92 % of control

O=C(Nc1nccs1)Nc1ccccc1Cl
inactive: [7] 96 % of control | [1] 91 % of control | [8] 91 % of control | [2] 98 % of control | [9] 96 % of control | [3] 107 % of control

C[N+]1(Cc2ccccc2)C2CCC1C(=O)N(Cc1ccccc1)C2=O (configuration not stated)
inactive: dose: 75.0 mg/kg/injection, schedule: Q01DX001 (ip), vehicle: saline 103 % of control | dose: 150.0 mg/kg/injection, schedule: Q01DX001 (ip), vehicle: saline 116 % of control

CC/C=C(\C)C1(C(C)C)C(=O)NC(=O)NC1=O
inactive: dose: 75.0 mg/kg/injection, schedule: Q01DX001 (ip), vehicle: carboxymethylcellulose (CMC) 105 % of control

CCCCSP(Cc1ccccc1)SCCCC
inactive: [10] 96 % of control | [11] 94 % of control

CCCCCCCCCCCCSC(SCCCCCCCCCCCC)c1ccc(OCC(=O)O)cc1
inactive: dose: 25.0 mg/kg/injection, schedule: Q04DX003 (ip), vehicle: saline 105 % of control | dose: 50.0 mg/kg/injection, schedule: Q04DX003 (ip), vehicle: saline 96 % of control | [7] 97 % of control | [12] 100 % of control | [8] 94 % of control | [13] 102 % of control | [9] 97 % of control | [14] 96 % of control

O=C1NC(=S)N/C1=C/c1ccc2c(c1)CCC2
inactive: [15] 112 % of control | [4] 95 % of control | [16] 94 % of control | [5] 101 % of control | [17] 102 % of control | [6] 87 % of control

COc1ccc(-c2cc(-c3ccc(Cl)cc3)no2)cc1
inactive: [10] 106 % of control | [11] 92 % of control | dose: 400.0 mg/kg/injection, schedule: Q04DX003 (ip), vehicle: Klucel (hydroxypropylcellulose) (HPC) 95 % of control

CC(Oc1ccccc1)C(=O)NC(=S)Nc1cc(C(F)(F)F)ccc1Cl (configuration not stated)
inactive: dose: 50.0 mg/kg/injection, schedule: Q01DX009 (ip), vehicle: other 101 % of control and 103 % of control | [18] 105 % of control | dose: 100.0 mg/kg/injection, schedule: Q01DX009 (ip), vehicle: other 100 % of control and 92 % of control | dose: 100.0 mg/kg/injection, schedule: Q04DX002 (ip), vehicle: other 97 % of control and 110 % of control | [19] 100 % of control | dose: 200.0 mg/kg/injection, schedule: Q01DX009 (ip), vehicle: other 95 % of control and 92 % of control | dose: 200.0 mg/kg/injection, schedule: Q04DX002 (ip), vehicle: other 98 % of control and 106 % of control | [20] 94 % of control | dose: 400.0 mg/kg/injection, schedule: Q01DX009 (ip), vehicle: other 87 % of control | dose: 400.0 mg/kg/injection, schedule: Q04DX002 (ip), vehicle: other 97 % of control and 116 % of control

COc1ccc(OC)c(C2N(Cc3ccc(N(C)C)cc3)CCCN2Cc2ccc(N(C)C)cc2)c1
inactive: dose: 50.0 mg/kg/injection, schedule: Q01DX009 (ip), vehicle: saline with Tween-80 93 % of control | [15] 93 % of control | [16] 90 % of control

O=c1oc2ccccc2c2c1C(c1ccccc1)C=C(c1ccccc1)O2 (configuration not stated)
inactive: [4] 89 % of control | [5] 91 % of control | [6] 92 % of control

CC(C)(C)N(O)C(=O)NCCCl
inactive: dose: 100.0 mg/kg/injection, schedule: Q01DX001 (ip), vehicle: Klucel (hydroxypropylcellulose) (HPC) 97 % of control | dose: 200.0 mg/kg/injection, schedule: Q01DX001 (ip), vehicle: Klucel (hydroxypropylcellulose) (HPC) 92 % of control | dose: 400.0 mg/kg/injection, schedule: Q01DX001 (ip), vehicle: Klucel (hydroxypropylcellulose) (HPC) 97 % of control

CCOC(=O)CCC(NC(=O)c1ccc(NCc2nnc3nc(N)n4nnnc4c3n2)cc1)C(=O)OCC (configuration not stated)
inactive: dose: 25.0 mg/kg/injection, schedule: Q01DX001 (ip), vehicle: saline with Tween-80 96 % of control | dose: 50.0 mg/kg/injection, schedule: Q01DX001 (ip), vehicle: saline with Tween-80 109 % of control | dose: 100.0 mg/kg/injection, schedule: Q01DX001 (ip), vehicle: saline with Tween-80 100 % of control

Cc1c2cnccc2c(C)c2c1sc1ccccc12
inactive: dose: 75.0 mg/kg/injection, schedule: Q01DX001 (ip), vehicle: other 101 % of control | dose: 150.0 mg/kg/injection, schedule: Q01DX001 (ip), vehicle: other 106 % of control | dose: 300.0 mg/kg/injection, schedule: Q01DX001 (ip), vehicle: other 124 % of control

CC(C)(O)CCC1=C(O)c2ccccc2C(=O)C1=O
inactive: [10] 100 % of control | [11] 94 % of control

C[C@@]1(O)CCCC[C@H]1O
inactive: dose: 100.0 mg/kg/injection, schedule: Q01DX009 (ip), vehicle: saline 95 % of control | [12] 106 % of control | dose: 200.0 mg/kg/injection, schedule: Q01DX009 (ip), vehicle: saline 105 % of control | [13] 103 % of control | dose: 400.0 mg/kg/injection, schedule: Q01DX009 (ip), vehicle: saline 96 % of control | [14] 92 % of control

Cc1nnc2[nH]c(=O)[nH]c(=O)c2n1
inactive: dose: 50.0 mg/kg/injection, schedule: Q01DX001 (ip), vehicle: saline 98 % of control | [21] 104 % of control | dose: 200.0 mg/kg/injection, schedule: Q01DX001 (ip), vehicle: saline 101 % of control | dose: 400.0 mg/kg/injection, schedule: Q01DX001 (ip), vehicle: saline 98 % of control

O=C(NC(Cc1cnc[nH]1)C(=O)O)OCc1ccccc1 (configuration not stated)
inactive: [15] 100 % of control | [4] 100 % of control | [16] 100 % of control | [5] 98 % of control | [17] 96 % of control | [6] 101 % of control

Cc1[nH]c2cc(O)c(O)c(C)c2c1C
inactive: [21] 96 % of control

CCCCCCCCCCCC(=O)NC(=S)Nc1cc(OC)ccc1OC
inactive: [1] 104 % of control | [2] 111 % of control | [3] 93 % of control

O=Cc1ccc2cc(Cl)ccc2n1
inactive: [18] 93 % of control | [19] 110 % of control | [20] 106 % of control

COc1ccccc1OCC(=O)N1CCCC1
inactive: [1] 98 % of control | [2] 98 % of control | [3] 117 % of control
